Experiments:
mouse liver [1] = test: EE induction of gene expression in the mouse liver (GeneChip); format: in vivo; settings: 100 ug/kg/day EE sc 5 days;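 also: ovariectomized C57BL/6 mice, liver polyA RNA on Affymetrix murine 11K GeneChips, fold expression versus vehicle-pretreated PBS-injected mice set to 1.0, mean of two independent experiments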
Description: Ovariectomized C57BL/6 mice were pretreated by subcutaneous administration of either corn oil/ethanol vehicle or 100 ug/kg/day ethynylestradiol (EE) for 5 days. […] One hour later the livers were removed and polyA RNA was prepared. Global gene expression was determined by analysis using murine 11K GeneChips from Affymetrix. For each gene, the level of expression in animals receiving vehicle pretreatment plus PBS was defined as 1.0, with the expression levels in the mice receiving vehicle pretreatment±IL-1β or EE pretreatment±IL-1β defined relative to this. The results shown are the mean from two independent experiments.
To determine whether EE induction of any other gene could explain the inhibition of IL-1β gene inductions, the GeneChip results were analyzed for EE induction of gene expression.

Fnk, JAB, LIX, and bcl-3 = test: EE alteration of IL-1β induction of Fnk, JAB, LIX and bcl-3 in liver, spleen and lung; format: in vivo, mouse; settings: EE pretreatment
Description: The requirement for ERα for EE activity in the liver is consistent with the nearly exclusive presence of ERα in the liver (as determined by realtime PCR, panel A). In contrast, the lung expresses relatively low levels of ERα and high levels of ERB. […] In contrast, EE pretreatment had no effect on IL-1β induction of Fnk, JAB, LIX, or bcl-3 in the lung.

mouse liver [2] = settings: GeneChip, 1 h after 20 ug/kg IL-1β ip, pretreated 5 days with vehicle or 100 ug/kg/day EE sc, vehicle+PBS=1.0
Description: Experiments were conducted to evaluate IL-1β regulation of gene expression in the mouse liver. Ovariectomized C57BL/6 mice were pretreated by subcutaneous administration of either corn oil/ethanol vehicle or 100 ug/kg/day ethynylestradiol (EE) for 5 days. On the fifth day, the mice received an intraperitoneal injection of either PBS or 20 ug/kg IL-1β in PBS. One hour later the livers were removed and polyA RNA was prepared. Global gene expression was determined by analysis using murine 11K GeneChips from Affymetrix. For each gene, the level of expression in animals receiving vehicle pretreatment plus PBS was defined as 1.0, with the expression levels in the mice receiving vehicle pretreatment±IL-1β or EE pretreatment±IL-1β defined relative to this. The results shown are the mean from two independent experiments.
The fold regulation of each gene is plotted for animals receiving vehicle pretreatment x-axis) vs. animals receiving pretreatment with EE (y-axis). Genes with IL-1β induction unaffected by EE pretreatment would lie along the dotted diagonal.

[3] = tested on: Fnk, JAB, LIX, bcl-3 and SHP; test: Liver expression of Fnk, JAB, LIX, bcl-3 and SHP by realtime PCR after estrogen receptor ligand pretreatment and IL-1β
Description: Referring to FIG. 3a, to distinguish these two mechanisms, the IL-1β fold induction of Fnk, JAB, LIX, and bcl-3 and the IL-1β fold repression of SHP was quantified in animals pretreated with vehicle (black bars) or 100 ug/kg/day EE (grey bars). Liver RNA levels of each gene (mean +/−SEM) were determined by realtime PCR of RNA from each individual animal.
Referring to FIGS. 4a, 4b, 4c, 4d and 4e, experiments were conducted to determine whether EE blocks IL-1β induction of gene expression by an estrogen receptor (ER) dependent mechanism. Estrogens can regulate gene expression by many mechanisms including ER independent pathways such as antioxidant mechanisms. […] Liver expression levels of Fnk, JAB, LIX, bcl-3 and SHP (mean +/−SEM) were determined by realtime PCR.
Referring to FIGS. 5a, 5b, 5c, 5d, and 5e, experiments were conducted to determine whether ERα is required for EE regulation of gene expression in the liver. To determine whether ERα or ERβ mediated the EE effects on IL-1β gene expression in the liver, C57BL/6 wild type mice, C57BL/6 ERαKO mice, or 129 ERβKO mice were pretreated with vehicle (black bars) or […] EE (gray bars) for 5 days followed by a 1 hour treatment with IL-1β. Liver expression levels of Fnk, JAB, LIX, bcl-3, and SHP (mean +/−SEM) were quantified by realtime PCR, with expression in animals receiving vehicle+PBS defined as 1.0.

[4] = mouse liver, EE treated mice vs vehicle treated mice
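For IL-1 Induction A20 (Tnfaip3) in this document: ovariectomized C57BL/6 mice, liver polyA RNA profiled, values are fold expression relative to vehicle plus PBS, averaged over two independent experiments.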
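For IL-1 Induction B94, TNF-α induced protein 2 (Tnfaip2) in this document: ovariectomized C57BL/6 mice, liver polyA RNA profiled, values are fold expression relative to vehicle plus PBS, averaged over two independent experiments.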
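For IL-1 Induction C/EBPδ (Cebpd) in this document: ovariectomized C57BL/6 mice, liver polyA RNA profiled, values are fold expression relative to vehicle plus PBS, averaged over two independent experiments.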
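For IL-1 Induction CD14 (Cd14) in this document: ovariectomized C57BL/6 mice, liver polyA RNA profiled, values are fold expression relative to vehicle plus PBS, averaged over two independent experiments.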

## C#C[C@]1(O)CC[C@H]2[C@@H]3CCc4cc(O)ccc4[C@H]3CC[C@@]21C [EE, ethynylestradiol]
Mouse liver [1]
  EE Induction C1Qc (C1qc): 2.3
  EE Induction C1qB (C1qb): 2.8
  EE Induction CD53 (Cd53): 2.9
  EE Induction CD68 antigen (Cd68): 3.1
  EE Induction CD97 (Cd97): 6.0
  EE Induction Cytochrome P450, 17 (Cyp17): 32.3
  EE Induction F4/80 (Emr1): 3.1
  EE Induction H2A histone family, member X (H2afx): 5.1
  EE Induction Keratin complex 2, basic, gene 4 (Krt2-4): 38.0
  EE Induction apolipoprotein A-IV (Apoa4): 3.5
  EE Induction apolipoprotein C2 (Apoc2): 2.2
  EE Induction apoptosis inhibitory 6 (Api6): 3.3
  EE Induction cadherin 1 (Cdh1): 2.6
  EE Induction cathepsin S (Ctss): 4.0
  EE Induction cell division cycle 2 homolog A (Cdc2a): 4.6
  EE Induction colony stimulating factor 1 receptor (Csf1r): 2.8
  EE Induction creatine kinase B (Ckb): 13.0
  EE Induction cytochrome P450, 7b1 (Cyp7b1): 21.1
  EE Induction desmocollin 2 (Dsc2): 5.0
  EE Induction fatty acid binding protein 7, brain (Fabp7): 4.8
  EE Induction interferon activated gene 203 (lfi203): 2.5
  EE Induction interleukin 17 receptor (Il17r): 3.5
  EE Induction leukemia inhibitory factor receptor (Lifr): 5.1
  EE Induction lymphocyte antigen 86 (Ly86): 4.3
  EE Induction lysosomal thiol reductase IP30 precursor (IP30): 3.7
  EE Induction mannose receptor, C type 1 (Mrc1): 2.6
  EE Induction myo-inositol-1-phosphate synthase (aa221219): 167.1
  EE Induction properdin (Pfc): 2.9
  EE Induction prostaglandin D2 synthase (Ptgds): 72.8
  EE Induction proteinase 3 (Prtn3): 24.1
  EE Induction pyrroline-5-carboxylate synthetase (Pycs): 3.3
  EE Induction serum/glucocorticoid regulated kinase (Sgk): 4.5
  EE Induction signal transducer and activator of transcription 5A (Stat5a): 4.1
  EE Induction solute carrier family 11, member 1 (Slc11a1): 3.6
  EE Induction stathmin (Kist): 3.5
  EE Induction testosterone 16-alpha-hydroxylase (C-16-alpha) (Cyp2d9): 2.3
  EE Induction trefoil factor 3, intestinal (Tff3): 16.3
  EE Induction type llb Na/phosphate-cotransporter (Npt2b): 13.5
Fnk, JAB, LIX, and bcl-3; liver
  IL-1β induction of Fnk, JAB, LIX, and bcl-3 in the liver: significantly blocked
Fnk, JAB, LIX, and bcl-3; lung
  IL-1β induction of Fnk, JAB, LIX, or bcl-3 in the lung: no effect
Fnk, JAB, LIX, and bcl-3; spleen
  IL-1β induction of Fnk and JAB in the spleen: blocked
Mouse liver [2]
  IL-1 Induction A20 (Tnfaip3): 11.4 fold
  IL-1 Induction B94, TNF-α induced protein 2 (Tnfaip2): 17.7 fold
  IL-1 Induction C/EBPδ (Cebpd): 5.2 fold
  IL-1 Induction CD14 (Cd14): 6.1 fold
  IL-1 Induction CD83 (Cd83): 4.0 fold
  IL-1 Induction E-selectin (Sele): 5.2 fold
  IL-1 Induction Ets transcription factor ELF3 (Elf3): 6.7 fold
  IL-1 Induction G0/G1 switch gene 2 (G0s2): 0.05 fold
  IL-1 Induction GTP binding protein IRG-47 (lfi47): 3.2 fold
  IL-1 Induction Gadd45 (Gadd45a): 3.6 fold
  IL-1 Induction Glvr-1 (Slc20a1): 5.8 fold
  IL-1 Induction H-2Ld (H-2L): 4.1 fold
  IL-1 Induction ICAM-1 (lcam1): 38.4 fold
  IL-1 Induction IL-1m (Il1m): 18.9 fold
  IL-1 Induction IL-15 receptor (Il15ra): 2.7 fold
  IL-1 Induction IxBa (Nfkbia): 7.4 fold
  IL-1 Induction JAB, suppressor of cytokine signaling 1 (Cish1): 1.4 fold
  IL-1 Induction JE/MCP-1 (Scya2): 64.4 fold
  IL-1 Induction LIX (Scyb5): 2.9 fold
  IL-1 Induction LPS inducible C—C chemokine receptor related (AF030185): 5.6 fold
  IL-1 Induction M-CSF (Csf1): 23.9 fold
  IL-1 Induction MARCKS-like macrophage protein (Mlp): 5.1 fold
  IL-1 Induction MIG (Scyb9): 5.4 fold
  IL-1 Induction MIP2 (Scyb2): 91.1 fold
  IL-1 Induction MIP-1 gamma (Scya9): 1.9 fold
  IL-1 Induction MyD118 (GADD45b): 12.9 fold
  IL-1 Induction NF-E2 related factor 2 (NRF2) (Nfe212): 7.2 fold
  IL-1 Induction NF-kappa-B p105 (Nfkb1): 6.2 fold
  IL-1 Induction NFkB p100 (Nfkb2): 2.8 fold
  IL-1 Induction PAI-1 (Serpine1): 40.8 fold
  IL-1 Induction PDGF-induced KC (Gro1): 6.1 fold
  IL-1 Induction PIM-1 protein kinase (Pim1): 2.1 fold
  IL-1 Induction SHP (NrGb2): 0.53 fold
  IL-1 Induction T-cell death associated gene (Tdag): 2.2 fold
  IL-1 Induction T-cell specific GTPase (Tgtp): 2.8 fold
  IL-1 Induction TGFB inducible early growth response (Tieg): 0.38 fold
  IL-1 Induction Ubiquitin-conjugating E2 enzyme variant 2 (Ube2v2): 5.3 fold
  IL-1 Induction VCAM-1 (Vcam1): 12.5 fold
  IL-1 Induction adrenergic receptor, beta 2 (Adrb2): 3.1 fold
  IL-1 Induction adrenomedullin (Adm): 10.0 fold
  IL-1 Induction apoptosis inhibitor 1 (Birc2): 8.9 fold
  IL-1 Induction apoptosis inhibitor 2 (Birc3): 4.3 fold
  IL-1 Induction bcl-3 (Bcl3): 6.2 fold
  IL-1 Induction c-JUN (Jun): 5.6 fold
  IL-1 Induction calcium binding protein A6 (S100a6): 2.6 fold
  IL-1 Induction calgranulin A (S100A8): 10.7 fold
  IL-1 Induction calgranulin B (S100a9): 25.7 fold
  IL-1 Induction cytokine-inducible kinase Fnk (Cnk): 0.3 fold
  IL-1 Induction gly96 (ler3): 43.8 fold
  IL-1 Induction growth factor receptor bound protein 7 (Grb7): 0.13 fold
  IL-1 Induction guanylate nucleotide binding protein 2 (Gbp2): 3.6 fold
  IL-1 Induction helix-loop-helix factor HES-1 (Hes1): 0.25 fold
  IL-1 Induction heme oxygenase 1 (Hmox1): 3.0 fold
  IL-1 Induction hsp68 (Hsp70-3): 1.5 fold
  IL-1 Induction inducible 6-phosphofructo-2-kinase (AA163244): 3.0 fold
  IL-1 Induction inhibitor of DNA binding 3 (idb3): 3.1 fold
  IL-1 Induction insulin-like growth factor binding protein 1 (lgfbp1): 4.3 fold
  IL-1 Induction intercrine (Scya7): 11.4 fold
  IL-1 Induction interferon regulatory factor 1 (Irf1): 9.0 fold
  IL-1 Induction junB (Junb): 2.6 fold
  IL-1 Induction lipocalin 2 (Lcn2): 2.9 fold
  IL-1 Induction lkB-beta (Nfkbib): 2.8 fold
  IL-1 Induction m-myc (Myc): 3.4 fold
  IL-1 Induction macrophage interferon inducible protein 10 (Scyb10): 39.3 fold
  IL-1 Induction metalloproteinase-disintegrin (Adamts1): 4.6 fold
  IL-1 Induction molecule possessing ankyrin-repeats induced by LPS (aa614971): 22.7 fold
  IL-1 Induction myocyte-enriched calcineurin interactin protein (Dscrl): 9.3 fold
  IL-1 Induction noctumin (Ccr4): 9.0 fold
  IL-1 Induction p65 NF-kappa B (Rela): 2.4 fold
  IL-1 Induction phospholipid scramblase 1 (Plscr1): 5.6 fold
  IL-1 Induction protein tyrosine phosphatase 4a1 (Ptp4a1): 1.2 fold
  IL-1 Induction regulator for ribosome resistance homolog (Rrr): 3.3 fold
  IL-1 Induction relB (Relb): 7.9 fold
  IL-1 Induction rhoB (Arhb): 18.5 fold
  IL-1 Induction serum amyloid A 3 (Saa3): 36.0 fold
  IL-1 Induction serum amyloid A 4 (Saa4): 1.9 fold
  IL-1 Induction suppressor of cytokine signaling 2 (Cish2): 1.7 fold
  IL-1 Induction suppressor of cytokine signaling 3 (Cish3): 6.0 fold
  IL-1 Induction transglutaminase (Tgm2): 8.0 fold
[3]; 129 ERβKO mice vs C57BL/6 wild type, 10 ug/kg/day EE 5 days, IL-1β 1 hour
  EE inhibition of IL-1β regulation of Fnk, JAB, LIX, bcl-3, SHP in animals lacking ERβ vs wild type: comparable
[3]; C57BL/6 ERαKO mice, 10 ug/kg/day EE 5 days, IL-1β 1 hour
  effect on IL-1β regulation of Fnk, JAB, LIX, bcl-3, SHP in animals lacking ERα: no effect
[3]; mice, 100 ug/kg/day EE, 1 or 10 mg/kg/day E2, 30 mg/kg/day genistein, 5 mg/kg/day raloxifene, 10 mg/kg/day ICI182780, plus IL-1β
  effect on regulation of liver Fnk, JAB, LIX, bcl-3 and SHP expression vs IL-1β alone: greatest effect
[3]; mouse liver, realtime PCR, vehicle treated or 100 ug/kg/day EE treated animals
  IL-1 repression of SHP expression: 85%
[3]; mouse liver, realtime PCR, vehicle treated or 100 ug/kg/day EE treated mice, IL-1 vs PBS
  IL-1 induction of bcl-3: 5.2 fold
[3]; mouse liver, 100 ug/kg/day EE pretreated vs vehicle
  IL-1β fold induction of Fnk, JAB, and LIX: reduced
[3]; mouse liver, 100 ug/kg/day EE treated vs vehicle
  IL-1β fold regulation for bcl-3 and SHP: the same
[3]; mouse liver, 100 ug/kg/day EE, 30 mg/kg/day genistein, 5 mg/kg/day raloxifene
  inhibition of IL-1β induction of Fnk, JAB, LIX and bcl-3: inhibited
[3]; [4]
  basal expression of SHP: increased
  basal expression of bcl-3: repressed
